Measurements as given in US9187471B2, “Pyrido [4,3-b] indole and pyrido [3,4-b] indole derivatives and methods of use” (Medivation Technologies, Inc., priority 2010, dated 2015).

Columns and labels:
[1] = target: T1, human recombinant serotonin (5-Hydroxytryptamine) 5-HT5A receptor (Homo sapiens, UniProt P47898); assay: Serotonin 5-HT5A radioligand binding ([3H]LSD); settings: compound at 0.1 μM; read-out: Inhibition of ligand binding, Serotonin 5-HT5A (percent inhibition of specific binding)
T1 construct: expressed in transfected cells; host or cells: CHO-K1
T1 sequence (P47898 whole entry): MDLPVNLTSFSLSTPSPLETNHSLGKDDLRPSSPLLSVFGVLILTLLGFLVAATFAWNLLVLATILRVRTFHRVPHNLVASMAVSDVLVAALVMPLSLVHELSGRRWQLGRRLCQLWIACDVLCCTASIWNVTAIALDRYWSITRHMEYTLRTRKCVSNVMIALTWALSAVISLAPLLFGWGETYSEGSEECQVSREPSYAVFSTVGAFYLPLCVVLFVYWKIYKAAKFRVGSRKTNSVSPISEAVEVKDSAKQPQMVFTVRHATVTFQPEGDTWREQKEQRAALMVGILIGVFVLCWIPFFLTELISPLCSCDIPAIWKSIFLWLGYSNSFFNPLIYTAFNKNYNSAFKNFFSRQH
Procedure: Compounds of the invention were incubated with 1.7 nM [^3H]Lysergic acid diethylamide (LSD) for 60 min at 37° C. […] Receptor proteins were filtered and washed, the filters were counted to determine [^3H]LSD specifically bound.

[2] = target: T2, human recombinant dopamine D2L receptor (Homo sapiens, UniProt P14416); assay: Dopamine D2L radioligand binding ([3H]Spiperone); settings: read-out: Dopamine D2L (1 μM), percent inhibition of specific binding; compound at 1 μM; 0.16 nM [3H]Spiperone
T2 construct: expressed in transfected cells; host or cells: CHO
T2 sequence (P14416 whole entry): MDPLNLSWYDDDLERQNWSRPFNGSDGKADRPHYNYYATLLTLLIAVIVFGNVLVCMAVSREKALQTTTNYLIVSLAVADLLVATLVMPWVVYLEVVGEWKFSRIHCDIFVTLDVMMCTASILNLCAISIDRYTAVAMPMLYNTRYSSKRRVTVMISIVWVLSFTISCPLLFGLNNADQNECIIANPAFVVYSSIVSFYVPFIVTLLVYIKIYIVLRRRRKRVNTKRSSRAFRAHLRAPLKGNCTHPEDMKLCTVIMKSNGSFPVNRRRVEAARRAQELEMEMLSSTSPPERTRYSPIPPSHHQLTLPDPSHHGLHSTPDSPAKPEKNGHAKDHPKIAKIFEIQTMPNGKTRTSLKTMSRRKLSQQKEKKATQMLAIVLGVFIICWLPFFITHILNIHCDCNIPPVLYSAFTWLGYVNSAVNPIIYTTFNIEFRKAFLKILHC
Procedure: Non-specific binding was estimated in the presence of 10 μM Haloperidol. Receptor proteins were filtered and washed, the filters were then counted to determine [^3H]Spiperone specifically bound.

[3] = target: T3, human recombinant serotonin (5-Hydroxytryptamine) 5-HT6 receptor (Homo sapiens, UniProt P50406); assay: Serotonin 5-HT6 radioligand binding ([3H]LSD); settings: compound at 0.1 μM; read-out: Inhibition of ligand binding, Serotonin 5-HT6 (percent inhibition of specific binding)
T3 construct: expressed in transfected cells; host or cells: HeLa
T3 sequence (P50406 whole entry): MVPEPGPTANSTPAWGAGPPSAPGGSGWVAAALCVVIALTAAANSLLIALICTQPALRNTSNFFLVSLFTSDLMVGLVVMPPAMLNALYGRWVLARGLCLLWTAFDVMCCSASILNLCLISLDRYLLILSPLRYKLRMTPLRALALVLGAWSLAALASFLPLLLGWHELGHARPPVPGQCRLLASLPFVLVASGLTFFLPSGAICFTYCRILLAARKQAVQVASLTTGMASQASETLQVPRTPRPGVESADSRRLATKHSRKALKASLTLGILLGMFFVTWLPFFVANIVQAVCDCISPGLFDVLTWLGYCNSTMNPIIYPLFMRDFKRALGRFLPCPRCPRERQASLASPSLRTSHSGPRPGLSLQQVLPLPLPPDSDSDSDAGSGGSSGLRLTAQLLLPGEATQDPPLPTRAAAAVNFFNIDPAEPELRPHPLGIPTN
Excerpt: Receptor proteins were filtered and washed, the filters were then counted to determine [3H]LSD specifically bound.

[4] = target: T4, human recombinant histamine H1 receptor (Homo sapiens, UniProt P35367); assay: Histamine H1 radioligand binding ([3H]Pyrilamine); settings: read-out: Histamine H1 Binding (1 μM), percent inhibition of specific binding; compound at 1 μM; 1.2 nM [3H]Pyrilamine
T4 construct: expressed in transfected cells; host or cells: CHO-K1
T4 sequence (P35367 whole entry): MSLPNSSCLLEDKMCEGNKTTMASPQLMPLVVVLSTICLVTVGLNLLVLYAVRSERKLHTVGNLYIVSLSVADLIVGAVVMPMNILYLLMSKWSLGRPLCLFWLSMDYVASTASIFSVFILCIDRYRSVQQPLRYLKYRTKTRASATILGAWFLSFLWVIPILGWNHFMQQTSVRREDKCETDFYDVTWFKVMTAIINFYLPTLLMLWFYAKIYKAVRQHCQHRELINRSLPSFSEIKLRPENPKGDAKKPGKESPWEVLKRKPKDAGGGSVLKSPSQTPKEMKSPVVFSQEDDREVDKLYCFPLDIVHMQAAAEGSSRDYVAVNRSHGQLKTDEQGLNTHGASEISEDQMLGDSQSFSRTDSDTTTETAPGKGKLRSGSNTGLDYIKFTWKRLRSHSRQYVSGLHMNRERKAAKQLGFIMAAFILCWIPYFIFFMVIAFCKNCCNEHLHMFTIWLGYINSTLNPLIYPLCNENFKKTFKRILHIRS
Outline: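 Results expressed as percent inhibition of specific [3H]pyrilamine binding, counted on filters after washing. Receptor source: CHO-K1 cells expressing recombinant human H1, in modified Tris-HCl buffer (50 mM, pH 7.4; 2 mM MgCl2, 100 mM NaCl, 250 mM sucrose). 1 μM pyrilamine defined non-specific binding.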

[5] = target: T5, rat adrenergic α1A receptor (Rattus norvegicus, UniProt P43140); assay: Adrenergic α1A radioligand binding ([3H]Prazosin); settings: read-out: Adrenergic (0.1 μM) a1A, percent inhibition of specific binding; compound at 0.1 μM; 0.25 nM [3H]Prazosin
T5 construct: rat adrenergic α1A receptor obtained from Wistar Rat submaxillary glands; from tissue; host or cells: Wistar rat submaxillary glands
T5 sequence (P43140 1-466): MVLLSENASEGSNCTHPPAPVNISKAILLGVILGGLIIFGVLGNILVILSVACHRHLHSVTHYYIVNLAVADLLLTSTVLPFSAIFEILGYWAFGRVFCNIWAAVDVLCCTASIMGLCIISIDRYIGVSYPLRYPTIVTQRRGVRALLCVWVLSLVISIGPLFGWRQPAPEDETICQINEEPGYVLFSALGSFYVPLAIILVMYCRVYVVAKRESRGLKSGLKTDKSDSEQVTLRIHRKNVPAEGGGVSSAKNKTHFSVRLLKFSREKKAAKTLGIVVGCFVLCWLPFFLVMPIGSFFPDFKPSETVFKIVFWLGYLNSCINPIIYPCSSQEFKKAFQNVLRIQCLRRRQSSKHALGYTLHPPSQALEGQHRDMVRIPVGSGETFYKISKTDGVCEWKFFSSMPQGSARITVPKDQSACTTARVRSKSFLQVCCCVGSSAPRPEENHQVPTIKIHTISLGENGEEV
Outline: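 Wistar rat submaxillary gland receptor in 50 mM Tris-HCl pH 7.4 with 0.5 mM EDTA, incubated with compound and 0.25 nM [3H]Prazosin for 60 min at 25 °C.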

[6] = target: T6, human recombinant adrenergic α2C receptor (Homo sapiens, UniProt P18825); assay: Adrenergic α2C radioligand binding ([3H]MK-912); settings: read-out: Adrenergic (0.1 μM) a2C, percent inhibition of specific binding; compound at 0.1 μM; 1 nM [3H]MK-912
T6 construct: expressed in transfected cells; host or cells: insect Sf9 cells
T6 sequence (P18825 1-462): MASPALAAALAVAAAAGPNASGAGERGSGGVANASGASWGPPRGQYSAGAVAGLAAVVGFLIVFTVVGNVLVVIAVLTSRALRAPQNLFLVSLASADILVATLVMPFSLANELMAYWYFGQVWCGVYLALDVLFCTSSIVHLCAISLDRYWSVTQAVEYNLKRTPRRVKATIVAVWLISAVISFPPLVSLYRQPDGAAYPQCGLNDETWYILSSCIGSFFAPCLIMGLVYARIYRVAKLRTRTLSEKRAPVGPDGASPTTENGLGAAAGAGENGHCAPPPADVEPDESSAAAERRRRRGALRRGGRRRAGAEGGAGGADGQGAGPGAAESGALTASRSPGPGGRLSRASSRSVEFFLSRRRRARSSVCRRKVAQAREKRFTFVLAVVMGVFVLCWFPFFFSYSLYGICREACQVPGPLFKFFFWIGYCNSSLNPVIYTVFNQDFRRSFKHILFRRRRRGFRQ
Outline: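 Membranes from Sf9 cells expressing the human receptor, in 50 mM Tris-HCl pH 7.4 with 12.5 mM MgCl2 and 2 mM EDTA, incubated with compound and 1 nM [3H]MK-912 for 60 min at 25 °C. Non-specific binding defined with 10 μM WB-4101. Filter-bound radioactivity counted; percent inhibition of specific binding reported.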

[7] = target: T7, human recombinant serotonin (5-Hydroxytryptamine) 5-HT7 receptor (Homo sapiens, UniProt P34969); assay: Serotonin 5-HT7 radioligand binding ([3H]LSD); settings: compound at 0.1 μM; read-out: Inhibition of ligand binding, Serotonin 5-HT7 (percent inhibition of specific binding)
T7 construct: expressed in transfected cells; host or cells: CHO
T7 sequence (P34969 whole entry): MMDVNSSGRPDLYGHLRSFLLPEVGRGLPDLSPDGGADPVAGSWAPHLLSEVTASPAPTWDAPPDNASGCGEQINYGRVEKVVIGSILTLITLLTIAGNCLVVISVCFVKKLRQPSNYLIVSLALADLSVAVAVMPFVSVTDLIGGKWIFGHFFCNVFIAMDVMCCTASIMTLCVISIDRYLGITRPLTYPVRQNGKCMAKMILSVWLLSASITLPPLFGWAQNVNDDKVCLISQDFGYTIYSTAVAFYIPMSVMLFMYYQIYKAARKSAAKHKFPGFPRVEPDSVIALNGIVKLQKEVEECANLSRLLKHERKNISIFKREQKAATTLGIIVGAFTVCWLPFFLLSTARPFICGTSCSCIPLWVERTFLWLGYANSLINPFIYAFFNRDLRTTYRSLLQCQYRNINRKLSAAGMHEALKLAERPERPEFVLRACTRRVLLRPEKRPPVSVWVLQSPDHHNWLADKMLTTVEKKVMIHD
Procedure: Lysergic acid diethylamide (LSD) for 120 min. at 25° C. […] Receptor proteins were filtered and washed, the filters were then counted to determine [^3H]LSD specifically bound.

Cc1ccc2c(c1)c1c(n2-c2cccc(-c3ccc4c(ccn4C)c3)c2)CCN(C)C1 [Compound 53, 2,8-dimethyl-5-(3-(1-methyl-1H-indol-5-yl)phenyl)-2,3,4,5-tetrahydro-1H-pyrido[4,3-b]indole]
inhibition at 0.1 µM [1]: 11% | inhibition at 1 µM [2]: 13% | inhibition at 0.1 µM [3]: 11% | inhibition at 1 µM [4]: 18% | inhibition at 0.1 µM [5]: -11% | inhibition at 0.1 µM [6]: 7% | inhibition at 0.1 µM [7]: 4%

Cc1ccc2c(c1)c1c(n2-c2ccc(-c3cccnc3)cn2)CCN(C)C1 [Compound No. 133, 5-(3,3′-bipyridin-6-yl)-2,8-dimethyl-2,3,4,5-tetrahydro-1H-pyrido[4,3-b]indole]
inhibition at 0.1 µM [1]: 6% | inhibition at 1 µM [2]: 11% | inhibition at 0.1 µM [3]: 10% | inhibition at 1 µM [4]: 6% | inhibition at 0.1 µM [5]: 21% | inhibition at 0.1 µM [6]: 0% | inhibition at 0.1 µM [7]: 21%

Cc1ccc2c(c1)c1c(n2-c2ccc3ccncc3c2)CCN(C)C1 [Compound No. 74, 5-(isoquinolin-7-yl)-2,8-dimethyl-2,3,4,5-tetrahydro-1H-pyrido[4,3-b]indole]
inhibition at 0.1 µM [1]: 21% | inhibition at 1 µM [2]: 56% | inhibition at 0.1 µM [3]: 14% | inhibition at 1 µM [4]: 18% | inhibition at 0.1 µM [5]: 52% | inhibition at 0.1 µM [6]: 11% | inhibition at 0.1 µM [7]: 2%

Cc1ccc2c(c1)c1c(n2-c2cccc(-c3ccc(C)nc3)c2)CCN(C)C1 [Compound 60, 2,8-dimethyl-5-(3-(6-methylpyridin-3-yl)phenyl)-2,3,4,5-tetrahydro-1H-pyrido[4,3-b]indole]
inhibition at 0.1 µM [1]: 62% | inhibition at 1 µM [2]: 24% | inhibition at 0.1 µM [3]: 3% | inhibition at 1 µM [4]: 32% | inhibition at 0.1 µM [5]: -2% | inhibition at 0.1 µM [6]: 21% | inhibition at 0.1 µM [7]: 41%

Cc1cc(C)c2c(c1)c1c(n2-c2cccc3ncccc23)CCN(C)C1 [Compound 47]
inhibition at 0.1 µM [1]: 29% | inhibition at 1 µM [2]: 19% | inhibition at 0.1 µM [3]: 18% | inhibition at 1 µM [4]: 42% | inhibition at 0.1 µM [5]: -1% | inhibition at 0.1 µM [6]: 11% | inhibition at 0.1 µM [7]: 36%

Cc1ccc2c(c1)c1c(n2-c2cscc2-c2cnn(C)c2)CCN(C)C1 [Compound 30]
inhibition at 0.1 µM [1]: 77% | inhibition at 1 µM [2]: 4% | inhibition at 0.1 µM [3]: 33% | inhibition at 1 µM [4]: 23% | inhibition at 0.1 µM [5]: 62% | inhibition at 0.1 µM [6]: 10% | inhibition at 0.1 µM [7]: 94%
